# Where “and” joins values, the source holds several entries; their conditions need not be identical. Equal values may be shown once. Toxic doses and inconclusive results are not listed. Square brackets hold non-standard residues; d marks the D form. Peptide text beside a SMILES is read from it. Sar = CNCC(=O)O
# System: P388 leukemia ip, CD2F1 mice, survival T/C
# Assay: NCI In Vivo Anticancer Drug Screen. Data for tumor model P388 Leukemia (intraperitoneal) in CD2F1 (CDF1) mice
# Settings: endpoint: median survival time, higher = longer survival
# Outline: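 Mice carrying the transplanted tumor received test compound or vehicle. Survival was recorded in each group, and the value is the treated-group measurement divided by that of the vehicle-treated control group.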
# [1] = dose: 50.0 mg/kg/injection, schedule: Q01DX005 (ip), vehicle: saline with Tween-80
# [2] = dose: 100.0 mg/kg/injection, schedule: Q01DX005 (ip), vehicle: saline with Tween-80
# [3] = dose: 100.0 mg/kg/injection, schedule: Q01DX009 (ip), vehicle: saline with Tween-80
# [4] = dose: 200.0 mg/kg/injection, schedule: Q01DX009 (ip), vehicle: saline with Tween-80
# [5] = dose: 12.5 mg/kg/injection, schedule: Q01DX005 (ip), vehicle: saline with Tween-80
# [6] = dose: 25.0 mg/kg/injection, schedule: Q01DX005 (ip), vehicle: saline with Tween-80
# [7] = dose: 60.0 mg/kg/injection, schedule: Q01DX005 (ip), vehicle: saline with Tween-80
# [8] = dose: 120.0 mg/kg/injection, schedule: Q01DX005 (ip), vehicle: saline with Tween-80
# [9] = dose: 240.0 mg/kg/injection, schedule: Q01DX005 (ip), vehicle: saline with Tween-80
# [10] = dose: 60.0 mg/kg/injection, schedule: Q01DX005 (ip), vehicle: saline
# [11] = dose: 120.0 mg/kg/injection, schedule: Q01DX005 (ip), vehicle: saline
# [12] = dose: 240.0 mg/kg/injection, schedule: Q01DX005 (ip), vehicle: saline
# [13] = dose: 200.0 mg/kg/injection, schedule: Q01DX005 (ip), vehicle: saline with Tween-80
smiles,measurement,setting,value
O=C1C(=O)c2nc3ccccc3nc2-c2ccccc21,T/C,"dose: 25.0 mg/kg/injection, schedule: Q01DX005 (ip), vehicle: water",103 % of control
same,T/C,"dose: 50.0 mg/kg/injection, schedule: Q01DX005 (ip), vehicle: water",97 % of control
same,T/C,"dose: 100.0 mg/kg/injection, schedule: Q01DX005 (ip), vehicle: water",100 % of control
same,T/C,"dose: 200.0 mg/kg/injection, schedule: Q01DX005 (ip), vehicle: water",96 % of control
same,T/C,"dose: 400.0 mg/kg/injection, schedule: Q01DX005 (ip), vehicle: water",104 % of control
CCOC1(OCC)Oc2c(c3ccccc3c3ccccc23)/C1=C1\c2c(c3ccccc3c3ccccc23)OC1(OCC)OCC,T/C,[1],94 % of control
same,T/C,[2],92 % of control
CN(CC(=O)O)C(=O)CNC(=O)CN (H-Gly-Gly-[Sar]-OH),T/C,"dose: 50.0 mg/kg/injection, schedule: Q01DX005 (ip), vehicle: saline",91 % of control
same,T/C,"dose: 100.0 mg/kg/injection, schedule: Q01DX005 (ip), vehicle: saline",92 % of control
same,T/C,"dose: 200.0 mg/kg/injection, schedule: Q01DX005 (ip), vehicle: saline",91 % of control
CN(CCl)S(=O)(=O)c1ccccc1,T/C,[3],90 % of control
same,T/C,[4],100 % of control
same,T/C,"dose: 400.0 mg/kg/injection, schedule: Q01DX009 (ip), vehicle: saline with Tween-80",105 % of control
COc1ccc(C[C@H](N)C(=O)NC2C(CO)OC(n3cnc4c(N(C)C)ncnc43)C2O)cc1 (stereo partly drawn),T/C,"dose: 4.0 mg/kg/injection, schedule: Q03HX024 (ip), vehicle: saline",115 % of control
same,T/C,"dose: 8.0 mg/kg/injection, schedule: Q01DX005 (ip), vehicle: saline",112 % of control
same,T/C,"dose: 8.0 mg/kg/injection, schedule: Q01DX009 (ip), vehicle: saline",107 % of control
same,T/C,"dose: 16.0 mg/kg/injection, schedule: Q01DX005 (ip), vehicle: saline",106 % of control
same,T/C,"dose: 16.0 mg/kg/injection, schedule: Q01DX009 (ip), vehicle: saline",100 % of control
same,T/C,"dose: 16.0 mg/kg/injection, schedule: Q03HX024 (ip), vehicle: saline",92 % of control
same,T/C,"dose: 20.0 mg/kg/injection, schedule: Q01DX009 (ip), vehicle: water",92 % of control
same,T/C,"dose: 22.0 mg/kg/injection, schedule: Q01DX009 (ip), vehicle: saline with Tween-80",120 % of control
same,T/C,"dose: 32.0 mg/kg/injection, schedule: Q01DX005 (ip), vehicle: saline",106 % of control
same,T/C,"dose: 32.0 mg/kg/injection, schedule: Q01DX009 (ip), vehicle: saline",109 % of control
same,T/C,"dose: 32.0 mg/kg/injection, schedule: Q04DX003 (ip), vehicle: saline",107 % of control
same,T/C,"dose: 33.0 mg/kg/injection, schedule: Q01DX009 (ip), vehicle: saline with Tween-80",122 % of control
same,T/C,"dose: 40.0 mg/kg/injection, schedule: Q01DX009 (ip), vehicle: water",92 % of control
same,T/C,"dose: 60.0 mg/kg/injection, schedule: Q01DX009 (ip), vehicle: water",90 % of control
same,T/C,"dose: 64.0 mg/kg/injection, schedule: Q01DX001 (ip), vehicle: saline",101 % of control and 92 % of control
same,T/C,"dose: 64.0 mg/kg/injection, schedule: Q01DX005 (ip), vehicle: saline",114 % of control
same,T/C,"dose: 64.0 mg/kg/injection, schedule: Q01DX009 (ip), vehicle: saline",109 % of control
same,T/C,"dose: 64.0 mg/kg/injection, schedule: Q04DX003 (ip), vehicle: saline",111 % of control
same,T/C,"dose: 80.0 mg/kg/injection, schedule: Q01DX009 (ip), vehicle: water",92 % of control
same,T/C,"dose: 100.0 mg/kg/injection, schedule: Q01DX009 (ip), vehicle: water",95 % of control
same,T/C,"dose: 100.0 mg/kg/injection, schedule: Q04DX003 (ip), vehicle: saline with Tween-80",104 % of control
same,T/C,"dose: 128.0 mg/kg/injection, schedule: Q01DX001 (ip), vehicle: saline",118 % of control and 97 % of control
same,T/C,"dose: 128.0 mg/kg/injection, schedule: Q01DX005 (ip), vehicle: saline",124 % of control
same,T/C,"dose: 128.0 mg/kg/injection, schedule: Q01DX009 (ip), vehicle: saline",118 % of control
same,T/C,"dose: 128.0 mg/kg/injection, schedule: Q04DX003 (ip), vehicle: saline",100 % of control
same,T/C,"dose: 150.0 mg/kg/injection, schedule: Q01DX009 (ip), vehicle: saline sonified",150 % of control
same,T/C,"dose: 200.0 mg/kg/injection, schedule: Q04DX003 (ip), vehicle: saline with Tween-80",95 % of control
same,T/C,"dose: 256.0 mg/kg/injection, schedule: Q01DX001 (ip), vehicle: saline",111 % of control
same,T/C,"dose: 256.0 mg/kg/injection, schedule: Q04DX003 (ip), vehicle: saline",90 % of control
same,T/C,"dose: 400.0 mg/kg/injection, schedule: Q04DX003 (ip), vehicle: saline with Tween-80",95 % of control
Cc1nnc2c([Se])nccn12,T/C,"dose: 100.0 mg/kg/injection, schedule: Q01DX001 (ip), vehicle: saline with Tween-80",99 % of control
same,T/C,"dose: 200.0 mg/kg/injection, schedule: Q01DX001 (ip), vehicle: saline with Tween-80",93 % of control
CCOC(=O)C[CH2][Sn]([Cl])([Cl])[Cl],T/C,"dose: 100.0 mg/kg/injection, schedule: Q04DX003 (ip), vehicle: saline",100 % of control
same,T/C,"dose: 200.0 mg/kg/injection, schedule: Q04DX003 (ip), vehicle: saline",103 % of control
N=C1CCC(=N)c2c1c(O)c1ccccc1c2O,T/C,"dose: 6.25 mg/kg/injection, schedule: Q01DX005 (ip), vehicle: saline with Tween-80",94 % of control
same,T/C,[5],104 % of control
same,T/C,[6],94 % of control
Cc1ccc(Nc2nnc(CSc3ccc(Cl)cc3)s2)c(S(=O)(=O)O)c1,T/C,[7],104 % of control
same,T/C,[8],94 % of control
same,T/C,[9],104 % of control
C=CCC1C=CC=CN1C(=O)OCC (stereo not drawn),T/C,[10],113 % of control
same,T/C,[11],113 % of control
same,T/C,[12],98 % of control
O=C1CN(Cc2ccc(Cl)cc2)CC(=O)N2CCCN12,T/C,[5],96 % of control
same,T/C,[6],100 % of control
same,T/C,[1],100 % of control
CC(C)=CCCC(=O)C(c1nc2n(c1O)C(=N)N=N2)c1nc2n(c1O)C(=N)N=N2 (stereo not drawn),T/C,[10],95 % of control
same,T/C,[11],97 % of control
same,T/C,[12],97 % of control
O=C1C(=O)N(c2cccc(Cl)c2)C(=O)N1Cc1ccccc1,T/C,"dose: 50.0 mg/kg/injection, schedule: Q01DX009 (ip), vehicle: Klucel (hydroxypropylcellulose) (HPC)",98 % of control
same,T/C,"dose: 100.0 mg/kg/injection, schedule: Q01DX009 (ip), vehicle: Klucel (hydroxypropylcellulose) (HPC)",104 % of control
same,T/C,"dose: 200.0 mg/kg/injection, schedule: Q01DX009 (ip), vehicle: Klucel (hydroxypropylcellulose) (HPC)",104 % of control
O=c1cc(Nc2ccc(Br)cc2)[nH]c(=O)[nH]1,T/C,[7],94 % of control
same,T/C,[8],100 % of control
same,T/C,[9],102 % of control
Cc1ccc(-[n+]2c3cc(N)c(C)cc3nc3cc(C)c(Nc4ccccc4)cc32)cc1,T/C,"dose: 25.0 mg/kg/injection, schedule: Q01DX005 (ip), vehicle: saline + Tween-80 + alcohol",109 % of control
same,T/C,[6],101 % of control
same,T/C,"dose: 50.0 mg/kg/injection, schedule: Q01DX005 (ip), vehicle: saline + Tween-80 + alcohol",116 % of control
same,T/C,[1],119 % of control and 122 % of control
same,T/C,[2],119 % of control and 122 % of control
same,T/C,[13],119 % of control
CCCC(OC(C)=O)C(C)[N+](=O)[O-] (stereo not drawn),T/C,"dose: 12.5 mg/kg/injection, schedule: Q01DX009 (ip), vehicle: saline with Tween-80",91 % of control
same,T/C,"dose: 25.0 mg/kg/injection, schedule: Q01DX009 (ip), vehicle: saline with Tween-80",100 % of control
same,T/C,"dose: 50.0 mg/kg/injection, schedule: Q01DX009 (ip), vehicle: saline with Tween-80",102 % of control
same,T/C,[3],104 % of control
same,T/C,[4],112 % of control
N#CCCn1nc(Sc2ccccc2)c(=O)[nH]c1=O,T/C,[1],95 % of control
same,T/C,[7],100 % of control
same,T/C,[2],94 % of control
same,T/C,[8],100 % of control
same,T/C,[13],94 % of control
same,T/C,[9],95 % of control
CCC12CN3CCc4c([nH]c5ccccc45)C(C(=O)OC)(c4cc5c(cc4OC)N(C)C4C(O)(C(=O)OC)C(OC(C)=O)C6(CC)C=CCN7CCC54C76)CC(C3=O)C1O2 (stereo not drawn),T/C,"dose: 4.0 mg/kg/injection, schedule: Q01DX001 (ip), vehicle: water",118 % of control
same,T/C,"dose: 32.0 mg/kg/injection, schedule: Q01DX001 (ip), vehicle: water",116 % of control
same,T/C,"dose: 64.0 mg/kg/injection, schedule: Q01DX001 (ip), vehicle: water",169 % of control
